Reference: US5939094A (priority 1996, dated 1999)
Like-named read-outs stand apart in the source and are kept apart here. Blank lines part the entries; values can stand above or below the compound they belong to.

Key:
[1] = system: Parkinson's disease; conditions: chronic oral levodopa, after initial 3-6 years; cited from earlier work
[2] = administered in a cream; cited from earlier work
[3] = rabbit
[4] = man, cited from earlier work
[5] = in vivo; conditions: rabbit, 0.5 mg/kg; for AUC: AUC (area under the concentration vs time curve); for MRT: MRT (mean residence time)
[6] = cited from earlier work
[7] = system: skin; conditions: rabbit, in vivo, 0.5 mg/kg
[8] = Experimental: Human skin samples were obtained from white female patients undergoing breast reduction surgery and prepared for in vitro permeation studies. Samples were stratum corneum from breasts of patients (Sample A) and (Samples B & C). A 2.0 cm^2 section of the skin tissue was placed in a Franz cell holder and maintained under phosphate buffered saline (PBS: 0.01M phosphate, 0.9% NaCl, pH 6.0) until testing. PBS (6.8 to 7.3 ml) was placed on the receptor side of the Franz cell. […] The cell was incubated at 35±1° C. A 250 μl sample was taken from the receptor medium at the following times: 0, 1/2, 1, 2, 4, and 6 hours. An equal volume of PBS was replaced each time a sample was withdrawn.
Samples were pre-filtered (0.45 μm) prior to injection. Samples (50 μl) were injected on an Altima (Alltech Associates) C18 column (15 cm×4.3 mm) with guard column. The mobile phase consisted of a 60:40 mixture of 5 mM sodium dodecylsulfate in 1 mM NH4 PO4 buffer, pH 3.0 and acetonitrile.

[9] = emulsions with apomorphine HCl and acrylic acid polymer gels, pH 7.6
[10] = in vivo, topical or ocular, 0.5 mg/kg
[11] = subcutaneous, 0.5 mg/kg, n=6, mean
[12] = sc, model-dependent, subcutaneous, n=6, mean
[13] = topical or ocular, model-independent

SMILES: N[C@@H](Cc1ccc(O)c(O)c1)C(=O)O [levodopa]
patients with movement abnormalities [1]: 40-60 % of patients

SMILES: CN1CCc2cccc3c2[C@H]1Cc1ccc(O)c(O)c1-3 [Apomorphine, apomorphine]
plasma levels of apomorphine [2]: No detectable plasma levels | Time for absorption of 10% of the drug ([3]; in vivo): 11.4 ± 3.4 min | Time for absorption of 50% of the drug ([3]; in vivo): 105.7 ± 23.9 min | absorption of the drug after percutaneous administration ([3]; in vivo, 0.5 mg/kg): absorption of the drug in all tested animals | bioequivalence (F) of percutaneous route vs subcutaneous administration ([3]; in vivo, 0.5 mg/kg): 35% | duration of the first, rapid absorption phase ([3]; in vivo, 0.5 mg/kg): 1 h | plasma concentration between the fourth and the fifth hour ([3]; in vivo, 0.5 mg/kg): an increase in the plasma concentration | plasma levels after removal of the gel ([3]; in vivo, 0.5 mg/kg): decreased | time until which absorption persisted ([3]; in vivo, 0.5 mg/kg): 450 min | Time for absorption of 10% of the drug ([3]; in vivo, sc): 4.0 ± 0.7 min | Time for absorption of 50% of the drug ([3]; in vivo, sc): 19.9 ± 2.9 min | absorption of the available amount of the drug after 150 minutes ([3]; in vivo, sc, 0.5 mg/kg): practically complete | k12 (transfer rate constant) ([3]; in vivo, sc, 0.5 mg/kg): 0.005 L/min | k13 (transfer rate constant) ([3]; in vivo, sc, 0.5 mg/kg): 0.057 L/min | k21 (transfer rate constant) ([3]; in vivo, sc, 0.5 mg/kg): 0.027 L/min | ka (exponent of the fitted function) ([3]; in vivo, sc, 0.5 mg/kg): 0.088 L/min | tmax (time to peak plasma concentration) ([3]; in vivo, sc, 0.5 mg/kg): 25.8 ± 4.9 min | α (exponent of the fitted function) ([3]; in vivo, sc, 0.5 mg/kg): 0.044 L/min | plasma level plateau [3, 10]: 10 to 15 ng/mL | stable mean plasma level after the second hour [3, 10]: 10 ng/mL | tmax (time to peak plasma concentration) [3, 10]: 29.4 ± 7.8 min | Cl, comparison of routes ([3]; subcutaneous vs percutaneous, 0.5 mg/kg): not different between the two routes | A (coefficient of the fitted function) [3, 11]: 712 ng/mL | B (coefficient of the fitted function) [3, 11]: 298 ng/mL | C0 (coefficient of the fitted function) [3, 11]: 1,010 ng/ml | Vd (mean) ([4]; i.v. injection): 2 L/kg | Vd (mean) ([4]; subcutaneous injection): 2 L/kg | tmax (range) ([4]; subcutaneous injection): 7 to 16 min | CL/F ([5]; sc): 31 ± 5 mL/min/kg | Cmax ([5]; sc): 331 ± 46 ng/mL | Tmax ([5]; sc): 25.8 min | concentration at 4 h ([5]; sc): 3 ± 1 ng/mL | k el ([5]; sc): 0.00035 s⁻¹ | AUC [5, 12]: 309 ng·h/mL | AUC ([5]; sc, model-independent): 297 ng·h/mL | MRT [5, 12]: 52 min | MRT ([5]; sc, model-independent): 50 min | Vd/F ([5]; sc, Vd (apparent volume of distribution)): 1.45 ± 0.12 L/kg | Vd/F ([5]; sc, Vdss, model-dependent): 1.1 ± 0.3 L/kg | CL/F ([5]; topical or ocular): 37 ± 1 mL/min/kg | Cmax ([5]; topical or ocular): 56 ± 12 ng/mL | Tmax ([5]; topical or ocular): 29.4 min | k el ([5]; topical or ocular): 0.000233 s⁻¹ | AUC [5, 13]: 104 ng·h/mL | MRT [5, 13]: 168 min | Vd/F ([5]; topical or ocular, Vd (apparent volume of distribution)): 2.72 ± 0.36 L/kg | duration of action ([6]; Parkinson's disease, movement disorders): short duration of action | adverse effects of oral or sublingual administration ([6]; oral or sublingual): stomatitis, and the development of buccal ulcers | breakdown in the liver ([6]; oral or sublingual): breakdown of the drug in the liver | local adverse effect [7]: No local adverse effect | FLUX, AVERAGE [8]: 1.61 μg/cm^2 /hr | In vitro transdermal permeation, TIME 0 hours [8]: 0 | In vitro transdermal permeation, TIME 0 hours, AVERAGE [8]: 0 | In vitro transdermal permeation, TIME 0.5 hours, AVERAGE [8]: 0.44 | In vitro transdermal permeation, TIME 1 hour, AVERAGE [8]: 2.05 | In vitro transdermal permeation, TIME 2 hours, AVERAGE [8]: 2.93 | In vitro transdermal permeation, TIME 4 hours, AVERAGE [8]: 7.03 | In vitro transdermal permeation, TIME 6 hours, AVERAGE [8]: 6.30

antioxidant suitability for apomorphine HCl emulsions and gels [9]: acceptable antioxidant
SMILES: N[C@@H](CCC(=O)N[C@@H](CS)C(=O)NCC(=O)O)C(=O)O [glutathione]
